Experimental data from patent publication US20170274083A1, “NASAL COMPOSITION HAVING ANTI-VIRAL PROPERTIES” (SOFIBEL S.A.S.-A COMPANY ULTIMATELY OWNED BY CHURCH & …, priority 2014, published 2017).

Test system: HRV-A16
Assay: Anti-viral effect: inhibition of HRV-A16 replication (viral RNA)
Assay type: cell-based, human rhinovirus
Details: applied 1 h before infection; change in viral RNA; fully differentiated human airway epithelial cells
Procedure: The example 1 composition is tested according to the test of evaluation of the potential activity against HRV-A16 (a rhinovirus responsible for colds) on fully differentiated human airway epithelial cells culture. The compositions are first applied before infection for one hour and the replication is carried out for 4 hours. 3 rinsing steps with the formulations are carried out. The remaining is collected and the RNA is dosed after cell lysis. The same collecting step is carried out 24 hours after and the same dosing step is carried out. The percentage expressed the changes in viral RNA, resulting in the % of inhibition of HRV-A16 replication, leading to the anti-viral efficacy. The tested composition is tested against rupintrivir (a known antiviral compound, providing an almost complete response).

`CCOC(=O)/C=C/[C@H](C[C@@H]1CCNC1=O)NC(=O)[C@@H](CC(=O)[C@@H](NC(=O)c1cc(C)on1)C(C)C)Cc1ccc(F)cc1` [Rupintrivir, rupintrivir] was tested, and the “Inhibition (%) of HRV-A16 replication” value was 99.62%.
